From patent US12233070B2, “Methods for treating benzodiazepine misuse/use disorder” (University of M[…] Center, priority 2020, dated 2025)
Like-named read-outs stand apart in the source and are kept apart here. Marks after values point to notes of the source that are not given here.

What was measured:
[1] = system: rhesus monkeys; assay: Observation/sedation, focal animal behavioral scoring; format: in vivo, rhesus monkey; conditions: i.v.
Experimental: For the data shown here, the behavior of each monkey (n=4 total) was scored using a focal animal approach as described previously (Duke et al. 2018, J Pharmacol Exp Ther 366: 145-57). Briefly, a trained observer blind to the drug treatments observed a specific monkey for 5 min and recorded each instance that a particular behavior occurred during 15-s intervals. Scores for each behavior were calculated as the number of 15-s bins in which the behavior occurred (e.g., a maximum score would be 20). For sedation measures, structured exposure to stimuli were included in the observation sessions (Duke et al., 2018). […] Specifically, the observer presented three stimuli: 1) walked at a normal pace towards the cage, 2) spoke the animal's name, and 3) moved the lock used to secure the door of the cage. […] If the monkey attended more slowly (i.e., >3 s following stimuli), the observer scored “moderate sedation”.
The assessment of sedation was initiated during the 5-min sampling period if the animal presented, at any time during that period, with its eyes closed for longer than 3 s. The result of this assessment was recorded for each remaining 15-sec interval of the 60-sec epoch unless eyes opened. Afterwards, eyes closing again initiated the assessment. If eyes remained closed, then the assessment was repeated at the beginning of the next 60-sec epoch 15-sec interval. Therefore, the maximum score for sedation during a 5-min period was 20 (four possible scores for 4×15-sec intervals per min, 5 min total; i.e., 4 possible scores×5 min=20). The order in which animals were observed and the observer performing the scoring each day was randomized. Four observers participated in the scoring throughout the duration of the study; each observer underwent a minimum of 20 hours of training and met an inter-observer reliability criterion of ≥90% agreement with all other observers.
The five-min sampling periods were repeated at multiple times following i.v. injection of TPA023B or vehicle (minutes post injection): 5, 10, 20, 40, 80, 160, 320. Scores were cumulated across the time periods, resulting in a maximum possible cumulative score of 140. TPA023B was compared with alprazolam, and the results have been published by Duke et al. (2018).

[2] = system: rodent, squirrel monkey; conditions: rodent and squirrel monkey models; cited from earlier work
[3] = system: men; conditions: cited from earlier work
[4] = system: CNS benzodiazepine binding sites; conditions: rodents and primates; cited from earlier work
[5] = system: rhesus monkeys; assay: Conflict model of anxiolysis (mult FR, FR+PUN); format: in vivo, rhesus monkey; conditions: i.v.; for Non-Suppressed, Mean responses/s (SEM) / Suppressed, Mean responses/s (SEM): N = 4 monkeys
Source text: The conflict procedure methodology includes a two-component multiple fixed-ratio, fixed-ratio plus punishment schedule (mult FR, FR+PUN). An important feature of this model is that it is highly predictive of clinically active doses in human subjects (Rowlett et al. 2006, Psychopharmacology 184: 201-11). One component of this schedule was associated with a distinctive visual stimulus (e.g., red light) and the other component was associated with a different stimulus (e.g., green light). In each component, completion of 10 responses (FR 10) produced a food pellet followed by a brief (10 sec) timeout period. The component ended following delivery of 5 food pellets or 5 min, whichever occurred first. A 10-min timeout period occurred before each of four cycles with two components (1 red, 1 green) per cycle. When performance in both components of the multiple schedule was stable, responding in one component was suppressed by superimposing a FR schedule of response-produced electric shock. Under the superimposed schedule, every nth response (n=15-25, adjusted for each monkey depending on individual performance) produced shock. Once responding was stable (at least three sessions in which suppressed responding was less than 50% of non-suppressed responding, with no upward or downward trend in response rates in either component), investigational compounds were administered i.v. during the extended timeout periods using a cumulative dosing technique. This technique allowed determination of a four-point dose-response function in a single session.
Table 2 summarizes data for TPA023B in the conflict procedure (n=4 monkeys, 2 females and 2 males), with alprazolam as a positive control. Average responses when vehicle was administered was 2.2 in the non-suppressed component, decreased by ˜98% by shock presentation in the suppressed component (mean=0.05 responses). For non-suppressed responding, TPA023B had no effects on mean rates of responding or percent of control over a 100-fold dose range (0.01 to 1.0 mg/kg, i.v.). […] This effect was similar to that observed with 0.03 mg/kg, i.v., of alprazolam. A striking characteristic of TPA023B in this procedure is the lack of attenuation of rates of responding at higher doses.

[6] = system: benzodiazepine binding sites; conditions: cited from earlier work
[7] = system: Sprague-Dawley rats; assay: Precipitated withdrawal/acute dependence: responding 60 min after diazepam bolus; format: in vivo, rat; conditions: all doses tested, vs ligand alone; FIGS. 11A and 11B
Experimental: Acute dependence can occur after single exposures to the benzodiazepine chlordiazepoxide, but not to an α2/3GABAA selective ligand (Fischer et al. 2013, Psychopharmacology 227: 347-54). Here, the extent to which TPA023B can precipitate withdrawal in rats following a single, large bolus dose of diazepam was studied. […] Once rates of responding were stable, doses of diazepam, the non-selective benzodiazepine antagonist flumazenil, and TPA023B were administered prior to the session.

[8] = parameters: key to Pharmacokinetics: “poor” - low bioavailability and/or short half-life; “good” - potent with long half-life; conditions: in vivo; cited from earlier work
[9] = system: rhesus monkeys; assay: Food self-administration (PR) after TPA023B pretreatment; format: in vivo, rhesus monkey; conditions: up to 0.3 mg/kg TPA023B i.v. pretreatment; 2 pellets/delivery
Source text: To evaluate the extent to which suppression of lever-pressing behavior by TPA023B represents non-specific inhibition, we also tested food self-administration under the PR schedule. For these experiments, test sessions were scheduled similar to those with midazolam dose/vehicle, except that 2 food pellets (1-g BioServ flavored food pellets) were available as reinforcers rather than midazolam dose. All other aspects of the test was the same, including response requirements and TPA023B pretreatment conditions.

[10] = at least one dose significantly different from vehicle, out of 22 behaviors, N = 4 monkeys

CC(C)(O)c1cnn2c(-c3ccc(F)c(-c4c(F)cccc4C#N)c3)cnc2n1 [TPA023B]
highest tolerated dose relative to lowest dose inducing rest/sleep posture ([1]; 1.0 mg/kg): 30 fold
Significant behavioral effects: Decrease [1, 10]: Tactile/Oral Exploration
Significant behavioral effects: Increase [1, 10]: Rest/Sleep Posture
tolerability ([1]; up to doses of 1.0 mg/kg): well-tolerated
anxiolytic-like effects [2]: anxiolytic-like effects
ataxia ([3]; any dose, up to 3.0 mg/70 kg): No ataxia
adverse effects ([3]; oral, 1.5 mg/70 kg, men): no adverse effects
adverse effects ([3]; oral, 3.0 mg/70 kg, men): fatigue and drowsiness in some subjects
subjects with fatigue and drowsiness ([3]; oral, 3.0 mg/70 kg, men): 1-4 subjects out of 8 total
occupancy of CNS benzodiazepine binding sites at minimally-effective doses in anxiolysis assays [4]: 61-88%
Non-Suppressed, Mean responses/s (SEM) ([5]; 0.01 mg/kg): 2.0 (0.08) responses/s
Suppressed, Mean responses/s (SEM) ([5]; 0.01 mg/kg): 0.03 (0.02) responses/s
Non-Suppressed, Mean responses/s (SEM) ([5]; 0.1 mg/kg): 2.0 (0.15) responses/s
Suppressed, Mean responses/s (SEM) ([5]; 0.1 mg/kg): 2.46 (0.40)* responses/s
Non-Suppressed, Mean responses/s (SEM) ([5]; 1.0 mg/kg): 2.1 (0.97) responses/s
Suppressed, Mean responses/s (SEM) ([5]; 1.0 mg/kg): 2.00 (0.75)* responses/s
effect on non-suppressed responding (mean rates, percent of control) ([5]; 100-fold dose range, 0.01 to 1.0 mg/kg): no effects
effect on rates of suppressed responding (anti-conflict effect) ([5]; reaching non-suppressed levels at 0.1 mg/kg): significantly enhanced
occupancy of benzodiazepine binding sites ([6]; 1.0 and 3.0 mg/kg): up to 95%
occupancy of benzodiazepine binding sites in brain ([6]; 3.0 and 10 mg/kg): ≤ 95%
rates of responding 60 min after 3.0 mg/kg diazepam (precipitated withdrawal) [7]: did not alter rates of responding
Pharmacokinetics [8]: good
effect on food-maintained responding [9]: did not alter
